Series [1] concerns "acetic contortions" in mice. The series is described as follows: Effect on analgetic action of Tramal and Analgin on the model "acetic contortions". Type of series: in vivo, white mongrel mice. As to the method:
(§1) The tests were conducted on males of white mongrel mice weighing 22-24 grams. The specific pain response (“contortions”) were elicited by intraperitoneal administration to mice of 0.75% acetic acid solution. The following signs were taken into consideration: the number of seizure contractions of abdominal muscles accompanied by stretching the hind limbs and sagging the back. Analgetic effect was assessed by decrease in the number of contortions in animals in percent to the control for 15 minutes post administration of acetic acid. The technique of the tests is disclosed in Koster R., Anderson M., de Beer B.//Fed. Proc. 1959. V. 18. P. 412. Compounds under testing were administered intraperitoneally (using a probe) at a dose 10 μg/kg 60 minutes prior to injection of the acid. Diclofenac (10 mg/kg) was used as a reference drug. Analgetic effect was calculated according to the formula: […]
The studies were carried out in accordance with the technique presented in Example 18.

For another series, the system named is "hot plate" test in mice. The experiment in a line: Analgetic activity on the model "hot plate". Type of series: in vivo, white mongrel mice. As to the method:
The tests were conducted on males of white mongrel mice weighing 22-24 grams. The animals were individually placed on a hot plate (manufactured by the firm “Ugo Basile”), a temperature of which remained constant and was equal to 55° C. The following first manifestations of pain reaction were recorded: licking paws, jumping up prior to administration of a substance (background parameters) and 0.5, 1, 2, 3 and 4 hours post administration of a substance. Substances were administered […] (using a probe). A weighed amount of a substance was thoroughly mixed in 0.1 ml Tween 80 until a solution was obtained, then normal saline was added up to a volume of 0.5 ml. Average latent time of nociception threshold (NT) was calculated in every group. The results obtained were expressed in percent of the background values. Analgetic effect (in %) was calculated according to the formula: A−100%=X, wherein A is a background parameter; X is analgetic effect (in %)
A is (time 0.5 to 4 hours post administration×100%): background time
As reference drugs, Analgin (150 mg/kg), Paracetamol (200 mg/kg), Ketorol (10 mg/kg), were used.

The next series concerns cyclooxygenase. The series is described as follows: In vitro effect on [14C]arachidonic acid metabolism in a cell-free homogenate of murine pulmonary tissue. Type of series: biochemical, CBA mice. The note with it: compound 10^−4 M, 37° C., 30 minutes. As to the method: Studies of arachidonic acid metabolism was carried out on females CBA mice who where fed a standard vivarium fodder. Animals (mice) were sacrificed, lungs were extracted, homogenized in a glass homogenizer manufactured by the firm “Wheaton” (USA) at 4° C. in 10 volumes of 0.05 M Tris-HCl buffer. Aliquots (0.5 ml) of supernatant were incubated in 0.5 μCi [1-C^14]-arachidonic acid [C^14]-AA, “Amersham”, England; specific activity 50-60 μCi/mmole) at 37° C. for 30 minutes. Non-metabolized [αC^14]-AA and products of metabolism thereof were extracted in 20 volumes of chloroform and methanol mixture (1:1) in extraction efficacy not less than 90% assessed using [C^14]-PGF2α. [C^14]-AA and metabolites thereof were separated and identified using TLC (the plates Kieselgel 60 of the “Merck” firm, Germany) using as an organic phase, the system of solvents (ethylacetate, isooctane, acetic acid, water—110:50:20:100) and labeled standards. Densitometry of autoradiochromograms obtained on the X-ray film X-Omat AR (“Kodak”, USA) and HS 11 (“ORWO”, Germany), was performed on the densiscan KS 3 (“Kipp and Zonnen”, Holland). Quantitative analysis of individual eicosanoids was carried out using radiometry of fractions obtained by high-performance liquid chromatography (the HPLC-system of the “Gilson” form, France; the column ZORBAX C8 of the “Du Pont” firm, USA) and by elution of spots on TLC-plates. The tested compounds were administered at concentration 10^−4 M.

In series [2] the test system is "acetic contortions" in mice. The series is described as follows: Analgetic activity on the model "acetic contortions". To be noted: dose 10 mg/kg (table title). In kind it is in vivo, white mongrel mice. As to the method:
as §1
wherein Ck is the number of contortions in the control group,
Co is the number of contortions in the test group.

The next series has as its system mice, forced swimming. The series is described as follows: "Behavioral despair" test according to Porsolt. Type of series: in vivo. The note with it: 50 mg/kg orally. The protocol:
The “behavioral despair” test according to Porsolt [R. D. Porsolt, A. Bertin and M. Jalfre.//in mice: A primary Screening Test for Antidepressants. Arch. Int. Pharmacodyn., 1977, 229, p. 327-336] is a predictive test for drugs with antidepressant action.
Stress state in mice (weighing 27-30 grams) is induced by forced swimming. Animals are placed into a cylinder (height 25 cm, diameter 10 cm) filled to ⅓ with water at temperature 21-23° C. The animals cannot escape from the cylinder by themselves. Following a short time of activity the animals develop a so called “behavioral depression” characterized by hovering of animals, immobilization duration of which can be fixed. The experiment is carried out in two days. One a first day, animals are placed into the cylinder for 15 minutes (pre-test). After removal from water, the animals are dried and preparations under testing are administered. At 24 hours, the preparations are administered again and one hour later the animals are placed into the cylinder for 6 minutes. During first two minutes the animals are actively swimming; during the subsequent four minutes, behavioral depression develops manifested by immobilization (hovering) which is fixed for 4 minutes and is measure in seconds. Compound IX and the reference antidepressant drug Fluoxetin were administered orally at a dose 50 mg/kg.

Series [3] deals with carrageenan edema of rat paw. The series is described as follows: Carrageenan edema of rat paw. In kind it is in vivo, outbreed white rats. To be noted: rats; 10% ointment; 4 hours post carrageenan. The protocol: The tests were conducted on males of outbreed white rats weighing 250-270 grams. The model of carrageenan edema was used which model is described in Winter et al. In: DeRosa M., Giroud J. P. Willoughby D. A. Studies of the mediators of acute inflammatory response induced in rats in different sites by carrageenan and turpentine.//J. Pharmacol. 1971. V. 104. P. 15-29.
0.1 ml 1% carrageenan solution (SERVA) was subplantarly injected into a right paw of rats. The animals were placed into individual chambers. […] Paw volume was measured using a pletismometer (Ugo Besile) at 4 hours post carrageenan administration. Therapeutic effect of the ointment was assessed by the inhibition degree of inflammatory reaction as compared to an intact left paw of the given animal and to a paw reaction of a control (untreated) group of rats. Inhibition of inflammatory reaction expressed in percent was calculated according to the formula: […]

The test system of another series is gastric mucosa of rats. The experiment in a line: Ulcerogenic effect on gastric mucosa. In kind it is in vivo, outbreed rats. The note with it: 30 mg/kg once intragastrally, at 24 hours, M ± m. The protocol: The tests were carried out on females of outbreed rats weighing 300-320 grams. The compounds tested were administered once intragastrally at a dose 30 mg/kg to rats deprived of feed for 24 hours prior to the test. Animals in the control group were administered distilled water in the same volume. At 24 hours the animals were sacrificed and stomachs were extracted. An empty stomach was filled with 2% formalin solution and it was placed into a beaker with formalin. 30 minutes later, the stomach was opened along the great curvature, expanded on a slide, fixed and washed with distilled water. Using the magnifying glass MBS-9 (8-fold magnification) length and width of gastric mucosa defects was measured and area in mm^2 was calculated (1 division of the magnifying glass ruler=0.1 mm). Ulcerogenic effect of a substance was assessed by ulcerous lesion area of gastric mucosa according to the technique presented in Rukovodstvo po experimental'nomu (doklinicheskomu) izucheniju novykh pharmacologicheskikh veshchestv (the Guide on Experimental (pre-clinical) Study of Novel Pharmacological Substances)./Moscow. “Remedium” publishers. 2000, 398 pages.

In another series the test system is HL-60 cells. The note with it: Chen et al., Chinese Pharmaceutical Journal 2001; cited from earlier work.

Each structure is given as a SMILES string.

As to `Cc1c(N(C)CS(=O)(=O)[O-])c(=O)n(-c2ccccc2)n1C.[Na+]` [Analgin, reference compound], in series [1] (Analgin 50 mg/kg alone), the “Analgetic effect, %” value was determined as 37.5% and the “Number of contortions for 15 minutes, M ± m” value is reported as 20.7 ± 2.3. Further, in the series on "hot plate" test in mice (Analgin 150 mg/kg, 30 minutes), the “Analgesia (%)” value stood at 53.4%; the “Latent time of NT (%)” value is 153.4%; the “latent time of nociception threshold, M ± m” value (from here on “latent time … M ± m”) turned out to be 7.44 ± 1.22 s. Moreover, in the series with "hot plate" test in mice (Analgin 150 mg/kg, 60 minutes), the “Analgesia (%)” value worked out at 50.3%; the “Latent time of NT (%)” value turned out to be 150.3%; the “latent time … M ± m” value turned out to be 7.29 ± 0.71 s. Also, in the series with "hot plate" test in mice (Analgin 150 mg/kg, 120 minutes), the “Analgesia (%)” value came to 28.9%; the “Latent time of NT (%)” value was 128.9%; the “latent time … M ± m” value stood at 6.25 ± 0.75 s. In the series with "hot plate" test in mice (Analgin 150 mg/kg, 240 minutes), the “Analgesia (%)” value came out at 10.3%; the “Latent time of NT (%)” value is 110.3%; the “latent time … M ± m” value was found to be 5.35 ± 0.38 s.

In the series with cyclooxygenase (b308 reads these as % cyclooxygenase inhibition), `O=C(CCc1ccc(O)cc1)NCCc1ccc(O)cc1` [Compound X, 3-(p-hydroxyphenyl)-propionyltyramine] registered a Prostanoids of −22. In addition, in the series with cyclooxygenase (change), the 6-keto-PGF1α was −9. The “AA (arachidonic acid)” value in the series with cyclooxygenase (change) was “+27”. The compound further had a PGE2 in the series on cyclooxygenase (change) of −38. The PGF2α in the series with cyclooxygenase (change) is −15. Further, the TXB2 with cyclooxygenase (change) is −42. In series [2] (Mus musculus, ip, 0.25 h, read-out: Analgetic effect (%)), the inhibition in vivo at 10 mg/kg turned out to be 54%. Further, in series [2] (Mus musculus, ip, 0.25 h, read-out: C, % to the control), the response vs control in vivo at 10 mg/kg is 46%. Besides, in series [2] (60 minutes prior to acetic acid), the “C ± m (the number of contortions for 15 minutes)” value amounted to 11.0 ± 2.4. The “Analgesia (%)” value in the series with "hot plate" test in mice (10 mg/kg, 30 minutes) is recorded as 75.3%; with "hot plate" test in mice (10 mg/kg, 60 minutes), 33.8%; in the series with "hot plate" test in mice (10 mg/kg, 120 minutes) it was 97.7%; in the series with "hot plate" test in mice (10 mg/kg, 240 minutes), 100.6%. The “latent time … M ± m” value was determined as 7.54 ± 0.78 s in the series with "hot plate" test in mice (10 mg/kg, 30 minutes post administration); 5.75 ± 0.83 s in the series on "hot plate" test in mice (10 mg/kg, 60 minutes post administration); 8.50 ± 1.03 s in the series on "hot plate" test in mice (10 mg/kg, 120 minutes post administration); 8.84 ± 0.925 s in the series on "hot plate" test in mice (10 mg/kg, 240 minutes post administration). The “Latent time of NT (%)” value with "hot plate" test in mice (10 mg/kg, 30 minutes, percent of background) was found to be 175.3%; in the series with "hot plate" test in mice (10 mg/kg, 60 minutes, percent of background) it was 133.7%; in the series with "hot plate" test in mice (10 mg/kg, 120 minutes, percent of background) it was 197.7%; with "hot plate" test in mice (10 mg/kg, 240 minutes, percent of background), 200.6%.

In the case of `CNCCC(Oc1ccc(C(F)(F)F)cc1)c1ccccc1` (centres unmarked) [Fluoxetin, reference compound], the “% change from the control” value in the series on mice, forced swimming is on record as −33%.

Take `COc1ccc2c(c1)c(CC(=O)O)c(C)n2C(=O)c1ccc(Cl)cc1` [Indomethacin, reference compound]: in series [3], the “Edema inhibition (%)” value was 50.0% and the “Paw volume gain (%)” value is reported as 45.0%. The “Area of ulcerous lesion” value in the series with gastric mucosa of rats was 7.3 ± 1.75 mm^2.

On to `COc1cccc(C2(O)CCCCC2CN(C)C)c1` (centres unmarked) [Tramal, reference compound], for which the “Analgetic effect, %” value in series [1] (IX 10 mg/kg, Tramal 10 mg/kg, alone or combined) came to 53%.

For the compound `O=C(Cc1ccccc1)N[C@@H](Cc1ccccc1)C(=O)O` [XIX, phenylacetylphenylalanine], the cellular differentiation entry with HL-60 cells is recorded as “inductor of cellular differentiation”.

Values taken from US8309766B2 (Obschestvo S. Organichennoi Otvetstvennostiyu …, priority 2005, dated 2012).
